# Source: US12139475B2, “2-oxindole compounds” (CHEMOCENTRYX, INC., priority 2016, dated 2024)
# Biological target: T1, CCR(9) (Homo sapiens, UniProt P51686)
# T1 construct: MOLT-4 cells were collected by centrifugation at 400×g at room temperature, then suspended at 50 million/ml in human serum; host or cells: MOLT-4
# T1 sequence (P51686 1-369): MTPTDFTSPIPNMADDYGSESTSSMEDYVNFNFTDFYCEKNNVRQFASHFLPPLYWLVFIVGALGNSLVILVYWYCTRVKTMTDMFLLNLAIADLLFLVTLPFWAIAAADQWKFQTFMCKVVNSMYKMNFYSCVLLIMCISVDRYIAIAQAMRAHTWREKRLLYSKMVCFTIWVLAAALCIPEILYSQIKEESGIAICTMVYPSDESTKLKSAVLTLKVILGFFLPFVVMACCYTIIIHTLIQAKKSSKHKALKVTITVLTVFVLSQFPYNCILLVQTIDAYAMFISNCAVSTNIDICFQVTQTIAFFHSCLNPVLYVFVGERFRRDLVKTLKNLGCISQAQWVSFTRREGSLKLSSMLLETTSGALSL
# Assay: Serum chemotaxis assay (MOLT-4 cells, TECK-induced migration, ChemoTX)
# Type: cell-based
# Details: MOLT-4 cells in human serum, migration to recombinant human TECK, 90 minutes at 37° C.
# Experimental: MOLT-4 cells were obtained from the American Type Culture Collection (Manassas, VA) and cultured in RPMI tissue culture medium supplemented with 10% fetal calf serum (FCS) in a humidified 5% CO2 incubator at 37° C. Recombinant human chemokine proteins TECK was obtained from R&D Systems (Minneapolis, MN). ChemoTX™ chemotaxis microchambers were purchased from Neuro Probe (Gaithersburg, MD). CyQUANT™ cell proliferation kits were purchased from Molecular Probes (Eugene, Oregon). Calcium indicator dye Fluo-4 AM was purchased from Molecular Devices (Mountain View, CA).
# A serum chemotaxis assay was used to determine the efficacy of potential receptor antagonists at blocking the migration mediated through chemokine receptors, such as CCR(9). This assay was performed using the ChemoTX® microchamber system with a 5-μm pore-sized polycarbonate membrane. MOLT-4 cells were collected by centrifugation at 400×g at room temperature, then suspended at 50 million/ml in human serum, containing 50 mM HEPES (final pH of 7.2). The compound being tested or an equivalent volume of its solvent (DMSO) was then added to the cell/serum mixture at a final DMSO concentration of 0.125% (v/v), and this mixture was then incubated together at 37° C. for one hour. Separately, recombinant human TECK was diluted with chemotaxis buffer (HBSS+0.1% BSA), generally spanning a range from 0.1 nM to 500 nM, after which 29 μl of diluted chemokine was placed in the lower wells of the ChemoTX® plate. The 5-μm (pore size) polycarbonate membrane was placed onto the plate, and 20 μL of the cell/compound mixture was transferred onto each well of the membrane. The plates were incubated at 37° C. for 90 minutes, after which the polycarbonate membranes were removed and 5 μl of the DNA-intercalating agent CyQUANT (Invitrogen, Carlsbad, CA) was added to the lower wells. The amount of fluorescence, corresponding to the number of migrated cells, was measured using a Spectrafluor Plus plate reader (TECAN, San Jose, CA).
# The A2 values were calculated from the following equation, comparing the efficacy of the test compound with that of the DMSO-only control at equi-active chemokine levels: Log(A2)=log[drug(M)]−log[(A′/A)−1] where A reflects the potency of the agonist in the absence of antagonist and A′ reflects the potency of the agonist in the presence of antagonist at a given concentration of drug ([drug(M)]). In Vivo Efficacy Models for Human IBD
row,SMILES,Chemotaxis A2
1,CC1(C)CCc2cc([C@]3(C)C(=O)N(c4cccc(CCC(=O)O)c4)c4ccc(Cl)cc43)ccc2O1,+++ (100 nM > A2)
2,CC1(C)CCc2cc([C@]3(C)C(=O)N(Cc4ccc(F)c(C(=O)O)c4)c4ccc(Cl)cc43)ccc2O1,+++ (100 nM > A2)
3,CC(C)(C)c1ccc(C2(C)C(=O)N(c3ccccc3C(=O)O)c3ccc(Cl)cc32)cc1 (centres unmarked),++ (500 nM > A2 ≥ 100 nM)
4,Cc1ccc2c(c1)N(c1ccc(C(=O)O)cc1)C(=O)C2(C)c1ccc(C(C)(C)C)cc1 (centres unmarked),++ (500 nM > A2 ≥ 100 nM)
5,CC(C)(C)c1ccc(C2(C)C(=O)N(c3cccc(C(=O)O)c3)c3cc(Cl)ccc32)cc1 (centres unmarked),++ (500 nM > A2 ≥ 100 nM)
6,CC(C)(C)c1ccc(C2(C)C(=O)N(c3ccc(C(=O)O)c(F)c3)c3ccc(Cl)cc32)cc1 (centres unmarked),++ (500 nM > A2 ≥ 100 nM)
7,CCc1ccc(N2C(=O)[C@@](C)(c3ccc4c(c3)CCC(C)(C)O4)c3cc(Cl)ccc32)cc1C(=O)O,+++ (100 nM > A2)
8,CC1(C)CCc2cc([C@]3(C)C(=O)N(Cc4cccc(Cl)c4C(=O)O)c4ccc(Cl)cc43)ccc2O1,+++ (100 nM > A2)
9,"Cn1nnn(Cc2ccc(N3C(=O)[C@@](C)(c4ccc5c(c4)CCC(C)(C)O5)c4cc(Cl)ccc43)cc2)c1=O [(S)-5-chloro-3-(2,2-dimethylchroman-6-yl)-3-methyl-1-(4-((4-methyl-5-oxo-4,5-dihydro-1H-tetrazol-1-yl)methyl)phenyl)indolin-2-one]",+++ (100 nM > A2)
10,COc1ccc(CN2C(=O)[C@@](C)(c3ccc4c(c3)CCC(C)(C)O4)c3cc(Cl)ccc32)cc1C(=O)O,+++ (100 nM > A2)
11,Cc1cc(C(=O)O)cc(N2C(=O)[C@@](C)(c3ccc4c(c3)CCC(C)(C)O4)c3cc(Cl)ccc32)c1,+++ (100 nM > A2)
12,CC1(C)Cc2cc(C3(C)C(=O)N(c4cccc(C(=O)O)c4)c4ccc(Cl)cc43)ccc2O1 (centres unmarked),+++ (100 nM > A2)
13,Cc1ccc2c(c1)[C@](C)(c1ccc3c(c1)CCC(C)(C)O3)C(=O)N2c1cccc(C(=O)O)c1,+++ (100 nM > A2)
14,Cc1ccc2c(c1)N(c1cccc(C(=O)O)c1)C(=O)C2(C)c1ccc(C(C)(C)C)cc1 (centres unmarked),++ (500 nM > A2 ≥ 100 nM)
15,CC1(C)CCc2cc([C@]3(C)C(=O)N(c4cccc(CC(=O)O)c4)c4ccc(Cl)cc43)ccc2O1,+++ (100 nM > A2)
16,COc1c(C)cc(N2C(=O)[C@@](C)(c3ccc4c(c3)CCC(C)(C)O4)c3cc(Cl)ccc32)cc1C(=O)O,+++ (100 nM > A2)
17,CC(C)(C)c1ccc(C2(C)C(=O)N(c3ccc(C(=O)O)cc3)c3ccc(Cl)cc32)cc1 (centres unmarked),+++ (100 nM > A2)
18,CC1(c2ccc(C3(C)C(=O)N(c4cccc(C(=O)O)c4)c4ccc(Cl)cc43)cc2)CC1 (centres unmarked),+++ (100 nM > A2)
19,"CC1(C)CCc2cc(C3(C)C(=O)N(c4ccc(CC(=O)O)cc4)c4ccc(Cl)cc43)ccc2O1 (stereo in doubt) [2-[4-[(3R)-5-chloro-3-(2,2-dimethylchroman-6-yl)-3-methyl-2-oxo-indolin-1-yl]phenyl]acetic acid]",+++ (100 nM > A2)
20,CC(C)(C)c1ccc(C2(C)C(=O)N(c3cc(C(=O)O)ccn3)c3ccc(Cl)cc32)cc1 (centres unmarked),+++ (100 nM > A2)
21,CC1(C)CCc2cc([C@]3(C)C(=O)N(Cc4ccc(F)cc4C(=O)O)c4ccc(Cl)cc43)ccc2O1,+++ (100 nM > A2)
22,COc1cccc(C(=O)O)c1CN1C(=O)[C@@](C)(c2ccc3c(c2)CCC(C)(C)O3)c2cc(Cl)ccc21,++ (500 nM > A2 ≥ 100 nM)
23,CC(C)(C)c1ccc(C2(C)C(=O)N(c3cc(C(=O)O)ccc3F)c3ccc(Cl)cc32)cc1 (centres unmarked),++ (500 nM > A2 ≥ 100 nM)
24,COc1cccc(CN2C(=O)[C@@](C)(c3ccc4c(c3)CCC(C)(C)O4)c3cc(Cl)ccc32)c1C(=O)O,+++ (100 nM > A2)

row,SMILES,Chemotaxis A2
1,"CC1(C)CCc2cc(C3(C)C(=O)N(c4cccc(C(=O)O)c4)c4ccc(Cl)cc43)ccc2O1 (stereo in doubt) [3-[(3R)-5-chloro-3-(2,2-dimethylchroman-6-yl)-3-methyl-2-oxo-indolin-1-yl]benzoic acid]",+++ (100 nM > A2)
2,CC(C)(C)c1ccc(C2(C)C(=O)N(c3cccc(C(=O)O)c3)c3c(Cl)cc(Cl)cc32)cc1 (centres unmarked),+ (20000 nM ≥ A2 ≥ 500 nM)
3,CC1(C)CCc2cc([C@]3(C)C(=O)N(c4cccc(C(C)(C)C(=O)O)c4)c4ccc(Cl)cc43)ccc2O1,+++ (100 nM > A2)
4,Cc1ccc2c(c1)C(C)(c1ccc(C(C)(C)C)cc1)C(=O)N2c1cccc(C(=O)O)c1 (centres unmarked),++ (500 nM > A2 ≥ 100 nM)
5,Cc1cc(C2(C)C(=O)N(c3cccc(C(=O)O)c3)c3ccc(Cl)cc32)ccc1C(C)(C)C (centres unmarked),++ (500 nM > A2 ≥ 100 nM)
6,CC(C)(O)c1ccc(C2(C)C(=O)N(c3cccc(C(=O)O)c3)c3ccc(Cl)cc32)cc1 (centres unmarked),++ (500 nM > A2 ≥ 100 nM)
7,CCc1ccc2c(c1)C(C)(c1ccc3c(c1)CCC(C)(C)O3)C(=O)N2c1cccc(C(=O)O)c1 (centres unmarked),+++ (100 nM > A2)
8,CC1(C)CCc2cc([C@]3(C)C(=O)N(c4ccc(OCC(=O)O)cc4)c4ccc(Cl)cc43)ccc2O1,+++ (100 nM > A2)
9,Cc1c(CN2C(=O)[C@@](C)(c3ccc4c(c3)CCC(C)(C)O4)c3cc(Cl)ccc32)cccc1C(=O)O,+++ (100 nM > A2)
10,CC1(C)CCc2cc([C@]3(C)C(=O)N(Cc4ccc(Cl)cc4C(=O)O)c4ccc(Cl)cc43)ccc2O1,+++ (100 nM > A2)
11,CC(C)Oc1ccc(C2(C)C(=O)N(c3cccc(C(=O)O)c3)c3ccc(Cl)cc32)cc1 (centres unmarked),+++ (100 nM > A2)
12,CC(C)(C)c1ccc(C2(C)C(=O)N(c3cc(F)cc(C(=O)O)c3)c3ccc(Cl)cc32)cc1 (centres unmarked),+++ (100 nM > A2)
13,Cc1ccc(CN2C(=O)[C@@](C)(c3ccc4c(c3)CCC(C)(C)O4)c3cc(Cl)ccc32)c(C(=O)O)c1,+++ (100 nM > A2)
14,CC1(C)CCc2cc([C@]3(C)C(=O)N(Cc4cccc(C(=O)O)c4)c4ccc(Cl)cc43)ccc2O1,+++ (100 nM > A2)
15,CC1(C)CCc2cc(C3(C)C(=O)N(c4cccc(C(=O)O)c4)c4ccc(C#N)cc43)ccc2O1 (centres unmarked),+++ (100 nM > A2)
16,CC(C)(C)c1ccc(C2(C)C(=O)N(c3cccc(C(=O)O)n3)c3ccc(Cl)cc32)cc1 (centres unmarked),++ (500 nM > A2 ≥ 100 nM)
17,CC(C)(C)c1ccc(C2(C)C(=O)N(c3ccc(C(=O)O)cc3F)c3ccc(Cl)cc32)cc1 (centres unmarked),++ (500 nM > A2 ≥ 100 nM)
18,CC1(C)CCc2cc([C@]3(C)C(=O)N(c4cc(C#N)cc(C(=O)O)c4)c4ccc(Cl)cc43)ccc2O1,++ (500 nM > A2 ≥ 100 nM)
19,"Cc1ccc2c(c1)C(C)(c1ccc3c(c1)CCC(C)(C)O3)C(=O)N2c1ccc(C)c(C(=O)O)c1 (stereo in doubt) [5-[(3R)-3-(2,2-dimethylchroman-6-yl)-3,5-dimethyl-2-oxo-indolin-1-yl]-2-methyl-benzoic acid]",+++ (100 nM > A2)
20,CC1(C)CCc2cc([C@]3(C)C(=O)N(c4ccc(CCC(=O)O)cc4)c4ccc(Cl)cc43)ccc2O1,+++ (100 nM > A2)
21,CC(C)(C)c1ccc(C2(C)C(=O)N(c3cccc(C(=O)O)c3)c3ccc(Cl)cc32)cc1F (centres unmarked),+++ (100 nM > A2)
22,CC(C)Oc1ccc(C2(C)C(=O)N(c3ccc(C(=O)O)cc3)c3ccc(Cl)cc32)cc1 (centres unmarked),+++ (100 nM > A2)
23,CC(c1cccc(C(=O)O)c1)N1C(=O)[C@@](C)(c2ccc3c(c2)CCC(C)(C)O3)c2cc(Cl)ccc21 (some centres unmarked),+++ (100 nM > A2)
